Reference: US20240207292A1, “BORONIC ACID COMPOUNDS, COMPOSITIONS AND METHODS” (Trustees of Tufts College, priority 2021, published 2024)
Read-outs that look alike come from different tables or passages of the source. Square brackets hold non-standard residues; d marks the D form. Peptide text beside a SMILES is read from it. * marks the point of attachment. X3 = O=C1CN2CCN3CC(=O)O[C]4(C3)CN(CC(=O)*)CCN3CC(=O)O[C](C2)(C3)[Lu]4[O]1; X4 = O=C1CN2CCN3CC(=O)O[C]4(C3)CN(CC(=O)*)CCN3CC(=O)O[C](C2)(C3)[Ga]4[O]1; DOTAGA = O=C(O)CN1CCN(CC(=O)O)CCN(C(CCC(=O)*)C(=O)O)CCN(CC(=O)O)CC1; X2 = O=C(O)CN1CCCN(CC(=O)O)CCN(CC(=O)*)CCCN(CC(=O)O)CC1; boroPro = OB(O)[C@@H]1CCCN1*

How the values were obtained:
Format in all cases: biochemical
[1] = target: recombinant human fibroblast activation protein (FAP) (Homo sapiens (Human), UniProt Q12884); experiment: In vitro assay fibroblast activation protein IC50 (Example 21)
Procedure: (§1) The purpose of this assay is to determine the IC50 of various inhibitors against recombinant human dipeptidyl peptidase IV (DPPIV), fibroblast activation protein (FAP) or prolyl oligopeptidase (PREP).
(§2) The assays are conducted in the following steps: • 1 Dissolve the compound in DMSO to a final concentration of 100 mM. From this, prepare a 1 mM stock at pH 7.5 in 50 mM Tris, 140 mM NaCl Buffer (FAP)/pH 7.5 in 25 mM Tris, 250 mM NaCl Buffer/[…]. • 2. Serial dilute (1:10) the 1 mM compound stocks prepared previously into the appropriate assay buffer (FAP: 50 mM Tris, 140 mM NaCl, pH 7.5/PREP: 25 mM Tris, 0.25 M NaCl, pH 7.5/DPPIV: 25 mM Tris, pH 8.0) to one row of a 96-well plate. • 3. […] Dilute the enzymes into their appropriate assay buffers. The final enzyme concentrations should be 0.1, 1.2, and 0.6 nM for DPPIV, FAP and PREP respectively. Add 180 μL to each well needed in columns 2-10. Column 1(A,B,C) should be prepared with 200 μl of appropriate assay buffer as control. Column 1(D,E,F,G,H) should be prepared with 20 μl of appropriate assay buffer and 180 ul enzyme as no inhibitor control. • 5. Add 20 μL of the compound of interest from the dilution plate prepared in step 2 to columns 2-10 of the assay plate where appropriate. Each sample should be tested in triplicate. Allow this to incubate for 10 minutes at room temperature, shaking the plate for the first two minutes. • 6. Add 10 μL of 20× substrate prepared in step 3 to each well and allow this to incubate for 15 minutes at room temperature, shaking the plate for the first two minutes. • 7. Read the fluorescence at λex: 380, λem: 460. (DPcore=[dAla|dSer|Gly]-[boroPro|Pro-nitrile], XXaa=alpha-amino acid)

[2] = target: recombinant human dipeptidyl peptidase IV (DPPIV) (Homo sapiens (Human), UniProt P27487); experiment: In vitro assay dipeptidyl peptidase IV IC50 (Example 21)
Procedure: as §1, §2

[3] = target: recombinant human prolyl oligopeptidase (PREP) (Homo sapiens (Human), UniProt P48147); experiment: In vitro assay prolyl oligopeptidase IC50 (Example 21)
Procedure: as §1, §2

recombinant human FAP = recombinant human FAP (Homo sapiens (Human), UniProt Q12884); experiment: In vitro enzyme IC50 assay, FAP (Example 16); conditions: 10 min preincubation at 25° C.; Z-Gly-Pro-AMC
Procedure: Biological Materials: For the in vitro IC50 determination assays, recombinant human DPPIV, DPP9, FAP, and PREP were purchased from R&D Systems, and DPP8 was from Biomol International. Buffer systems used were A (25 mM Tris, pH 8.0), B (50 mM Tris, pH 7.5), C (50 mM Tris, 140 mM NaCl, pH 7.5), D (25 mM Tris, 250 mM NaCl, pH 7.5), and E (20 mM Tris, 20 mM KCl, pH 7.4). […] Substrate Specificity Assay. Peptide libraries (0.21 mM) were incubated for 24 h with 1 nM FAP in buffer E at 37° C. The reaction was quenched by the addition of 1.2 N HCl. The samples were analyzed by reverse-phase HPLC-MS on a Thermo Finnigan LCQ Duo, quantifying the peaks in the resulting base peak chromatograms. Relative cleavage values were determined by comparing the postquench abundance of intact peptides to those in the initial library.
In Vitro Enzyme IC50 Assays. Enzymatic activity of DPPIV, DPP8, DPP9, FAP, and PREP was measured at 25° C. on a Molecular Devices M2e multidetection microtiter plate reader, monitoring the fluorescence at an excitation wavelength of 380 nm and an emission wavelength of 460 nm. The substrate was either H-Gly-Pro-AMC for the DPPIV, DPP8, and DPP9 assays or Z-Gly-Pro-AMC for the FAP and PREP assays. […] The final enzyme concentrations were 0.1, 0.8, 0.4, 1.2, and 0.6 nM for DPPIV, DPP8, DPP9, FAP, and PREP, respectively. […] Those prepared in pH 2.0 solution were preincubated at 25° C. for 4 h prior to dilution. Immediately prior to the commencement of the experiment, the 100 mM stocks were further diluted to 10^-3 M in the appropriate assay buffer, from which 1:10 serial dilutions were prepared. All inhibitors were tested in triplicate.

Sequence of recombinant human fibroblast activation protein (FAP) (Q12884 whole entry): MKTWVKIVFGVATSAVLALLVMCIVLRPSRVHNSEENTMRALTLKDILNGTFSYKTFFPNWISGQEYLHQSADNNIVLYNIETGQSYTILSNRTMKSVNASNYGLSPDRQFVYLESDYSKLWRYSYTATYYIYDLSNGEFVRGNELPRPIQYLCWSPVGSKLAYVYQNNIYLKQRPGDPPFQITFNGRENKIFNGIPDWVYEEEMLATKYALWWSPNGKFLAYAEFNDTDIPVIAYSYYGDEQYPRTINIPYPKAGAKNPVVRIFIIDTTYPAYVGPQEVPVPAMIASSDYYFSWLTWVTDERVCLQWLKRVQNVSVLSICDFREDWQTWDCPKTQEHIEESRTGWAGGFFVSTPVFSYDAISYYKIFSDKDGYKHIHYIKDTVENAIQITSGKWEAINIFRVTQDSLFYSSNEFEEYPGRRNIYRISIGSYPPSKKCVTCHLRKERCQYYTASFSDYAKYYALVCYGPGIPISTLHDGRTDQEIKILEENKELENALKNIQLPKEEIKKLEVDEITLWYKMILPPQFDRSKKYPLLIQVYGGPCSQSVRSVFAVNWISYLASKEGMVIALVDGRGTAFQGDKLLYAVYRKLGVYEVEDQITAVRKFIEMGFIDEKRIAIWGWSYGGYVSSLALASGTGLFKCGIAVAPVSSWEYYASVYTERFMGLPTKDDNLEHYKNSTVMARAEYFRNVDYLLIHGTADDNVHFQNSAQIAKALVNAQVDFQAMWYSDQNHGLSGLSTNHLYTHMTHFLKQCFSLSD
Sequence of recombinant human prolyl oligopeptidase (PREP) (P48147 whole entry): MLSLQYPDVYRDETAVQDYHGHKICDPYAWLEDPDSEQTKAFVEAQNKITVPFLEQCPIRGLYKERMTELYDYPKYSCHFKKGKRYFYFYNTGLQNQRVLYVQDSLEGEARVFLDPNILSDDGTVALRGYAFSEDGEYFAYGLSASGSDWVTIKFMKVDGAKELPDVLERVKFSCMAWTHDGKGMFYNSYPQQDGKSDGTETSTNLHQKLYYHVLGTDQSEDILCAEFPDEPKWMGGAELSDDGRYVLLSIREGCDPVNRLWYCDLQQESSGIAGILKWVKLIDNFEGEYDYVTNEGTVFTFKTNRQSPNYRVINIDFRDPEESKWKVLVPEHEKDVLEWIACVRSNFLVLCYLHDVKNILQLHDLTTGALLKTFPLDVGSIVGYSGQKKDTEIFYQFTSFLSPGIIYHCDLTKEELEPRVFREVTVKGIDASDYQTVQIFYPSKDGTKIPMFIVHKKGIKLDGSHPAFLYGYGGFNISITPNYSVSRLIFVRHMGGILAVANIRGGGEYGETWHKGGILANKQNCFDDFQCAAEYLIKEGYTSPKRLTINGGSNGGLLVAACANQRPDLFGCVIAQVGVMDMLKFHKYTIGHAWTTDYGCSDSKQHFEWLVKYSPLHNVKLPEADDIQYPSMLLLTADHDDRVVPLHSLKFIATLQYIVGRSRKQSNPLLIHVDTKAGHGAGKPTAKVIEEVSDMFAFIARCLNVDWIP
Sequence of recombinant human dipeptidyl peptidase IV (DPPIV) (P27487 whole entry): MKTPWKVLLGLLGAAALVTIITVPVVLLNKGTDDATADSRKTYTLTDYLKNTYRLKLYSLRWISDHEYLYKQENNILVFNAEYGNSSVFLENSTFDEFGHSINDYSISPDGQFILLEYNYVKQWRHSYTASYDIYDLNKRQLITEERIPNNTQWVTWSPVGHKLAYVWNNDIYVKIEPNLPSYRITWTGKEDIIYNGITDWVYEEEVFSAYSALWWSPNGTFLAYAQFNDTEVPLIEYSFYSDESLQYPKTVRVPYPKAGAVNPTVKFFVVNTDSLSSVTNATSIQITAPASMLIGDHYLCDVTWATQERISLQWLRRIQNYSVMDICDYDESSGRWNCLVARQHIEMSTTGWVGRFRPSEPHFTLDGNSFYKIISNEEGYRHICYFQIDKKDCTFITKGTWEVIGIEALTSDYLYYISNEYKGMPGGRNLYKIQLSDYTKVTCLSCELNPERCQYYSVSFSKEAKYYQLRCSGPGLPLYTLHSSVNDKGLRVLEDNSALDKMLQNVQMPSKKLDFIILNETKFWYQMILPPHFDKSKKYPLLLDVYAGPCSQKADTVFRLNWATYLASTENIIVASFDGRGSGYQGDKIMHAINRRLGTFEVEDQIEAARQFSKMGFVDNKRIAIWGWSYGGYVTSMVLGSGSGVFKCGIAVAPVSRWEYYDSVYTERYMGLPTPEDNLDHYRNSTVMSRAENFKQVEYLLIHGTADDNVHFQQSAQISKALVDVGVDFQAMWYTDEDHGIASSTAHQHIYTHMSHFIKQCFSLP
Sequence of recombinant human FAP (Q12884 whole entry): as the sequence (Q12884 whole entry) above

IC50 ([1]; Z-Gly-Pro-AMC, 1.2 nM enzyme)	IC50 ([3]; Z-Gly-Pro-AMC, 0.6 nM enzyme)	Structure (SMILES)	IC50 ([2]; Gly-Pro-AMC, 0.1 nM enzyme)	IC50 [1]	IC50 [3]	also measured
> 100000 nM	7.6 nM	CC(C)[C@H](NC(=O)CNC(=O)CNC(=O)CN1CCCN(CC(=O)O)CCN(CC(=O)O)CCCN(CC(=O)O)CC1)C(=O)N[C@@H](C)C(=O)N1CCC[C@H]1B(O)O [6522L] (X2-GGVA-boroPro)	3400 nM	–	–	–
290 nM	> 10000 nM	C[C@@H](NC(=O)CN1CCN(CC(=O)O)CCN(CC(=O)O)CCN(CC(=O)O)CC1)C(=O)N1CCC[C@H]1B(O)O [compound 4535]	–	–	–	–
17 nM	7450 nM	CC(C)[C@H](NC(=O)CNC(=O)CC[C@H](C(=O)O)N1CCN(CC(=O)O)CCN(CC(=O)O)CCN(CC(=O)O)CC1)C(=O)N[C@H](C)C(=O)N1CCC[C@H]1B(O)O [6795D]	> 100000 nM	–	–	–
33 nM	17400 nM	CC(C)[C@H](NC(=O)CNC(=O)CNC(=O)CCC(C(=O)O)N1CCN(CC(=O)O)CCN(CC(=O)O)CCN(CC(=O)O)CC1)C(=O)N[C@H](C)C(=O)N1CCC[C@H]1B(O)O (stereo partly shown) [compound 6794] ({DOTAGA}-GGV[dA]-boroPro)	–	–	–	–

The next lines start with the compound.

Structure (SMILES)	IC50 ([1]; Z-Gly-Pro-AMC, 1.2 nM enzyme)	IC50 ([3]; Z-Gly-Pro-AMC, 0.6 nM enzyme)	IC50 ([2]; Gly-Pro-AMC, 0.1 nM enzyme)	IC50 [1]	IC50 [3]	also measured
C[C@@H](NC(=O)c1ccc(NNC(=O)CCCCCNC(=O)CN2CCN(CC(=O)O)CCN(CC(=O)O)CCN(CC(=O)O)CC2)cc1)C(=O)N1CCC[C@H]1B(O)O [6486S, DOTA-EACA-HyBz-D-Ala-boroPro]	–	–	–	–	–	IC50 (recombinant human FAP): 1.7 nM
C[C@@H](NC(=O)[C@H]1CC[C@H](CNC(=O)CN2CCN3CCN4CCN(CC2)CC(=O)[O][Lu]([O]C(=O)C3)[O]C(=O)C4)CC1)C(=O)N1CCC[C@H]1B(O)O [6952 LU]	14 nM	21000 nM	> 100000 nM	–	–	–
C[C@@H](NC(=O)c1ccc(NNC(=O)CN2CCN(CC(=O)O)CCN(CC(=O)O)CCN(CC(=O)O)CC2)nc1)C(=O)N1CCC[C@H]1B(O)O [compound 4536]	–	–	–	9 nM	50 nM	IC50 [2]: 84000 nM
C[C@@H](NC(=O)c1ccc(NNC(=O)CN2CCN3CCN4CCN(CC2)CC(=O)[O][Gd]([O]C(=O)C3)[O]C(=O)C4)nc1)C(=O)N1CCC[C@H]1B(O)O [4536GD]	–	–	–	450 nM	> 100000 nM	IC50 [2]: > 100000 nM
CC(C)[C@H](NC(=O)CNC(=O)CNC(=O)CN1CCN2CC(=O)O[C]3(CN4CCN5CC(=O)O[C](C1)(C5)[Ga]3[O]C(=O)C4)C2)C(=O)N[C@H](C)C(=O)N1CCC[C@H]1B(O)O (stereo partly shown) [6522GA-02] (X4-GGV[dA]-boroPro)	575 nM	19000 nM	> 100000 nM	–	–	–
C[C@@H](NC(=O)c1ccc(CNC(=O)CCCNC(=O)CN2CCN(CC(=O)O)CCN(CC(=O)O)CCN(CC(=O)O)CC2)cc1)C(=O)N1CCC[C@H]1B(O)O [compound 6591]	–	–	–	0.36 nM	103 nM	–
C[C@@H](NC(=O)c1ccc(NNC(=O)CNC(=O)CN2CCN3CCN4CCN(CC2)CC(=O)[O][Lu]([O]C(=O)C3)[O]C(=O)C4)cc1)C(=O)N1CCC[C@H]1B(O)O [6487LU]	–	–	–	8.8 nM	34 nM	–
C[C@@H](NC(=O)c1ccc(NNC(=O)CN2CCN(CC(=O)O)CCN(CC(=O)O)CCN(CC(=O)O)CC2)cc1)C(=O)N1CCC[C@H]1B(O)O [4536B, DOTA-HyBz-D-Ala-boroPro]	–	–	–	–	–	IC50 (recombinant human FAP): 2.7 nM
CC(C)[C@H](NC(=O)CNC(=O)CNC(=O)CN1CCN2CC(=O)O[C]3(CN4CCN5CC(=O)O[C](C1)(C5)[Lu]3[O]C(=O)C4)C2)C(=O)N[C@H](C)C(=O)N1CCC[C@H]1B(O)O (stereo partly shown) [6522LU] (X3-GGV[dA]-boroPro)	26 nM	19000 nM	> 100000 nM	–	–	–
